Like-named read-outs stand apart in the source and are kept apart here.

Data set [1] concerns cigarette smoke-induced 3-nitrotyrosine formation in the lung parenchyma. The note with it: for 3-nitrotyrosine stained surface area, mean ± SEM: n=5 mice, room air 0.24, smoke alone 3.07. The method, then: 5-amino-2,3-dihydro-1,4-phthalazinedione sodium salt Form I was tested in an isolated, ventilated and perfused mouse lung system that was stimulated with cigarette smoke.
The isolated, ventilated and perfused mouse lung system (ILU) is an established model for studying acute effects of various conditions and drugs on lung parenchyma and vasculature. It is mainly used for examining effects of hypoxia and for evaluating the efficacy of potential drugs on the hypoxic pulmonary vasoreaction (cf. Weissmann et al. (2006) Proc Natl Acad Sci USA 103: 19093-19098).
C57BL/6J mice (n=25, 5 per group; male/female, 3-6 months, 20-30 g; Charles River GmbH, Sulzfeld, Germany) were anesthetized with a ketamine (100 mg/kg body weight) and xylazine (20 mg/kg body weight) intraperitoneal injection (Ceva Tiergesundheit GmbH, Dusseldorf, Germany) containing heparin (50 I.E. heparin/g body weight; Ratiopharm GmbH, Ulm, Germany). The lungs and the heart were removed from the chest cavity and placed on the ILU system (see FIGS. 1A and 1B). Lungs were ventilated in an isolated chamber using normoxic gas (21% O2, 5% CO2, 74% N2; 150 breaths per minute at the PEEP (positive end-expiratory pressure) of 3 cm H2O) and perfused with a modified Krebs-Henseleit buffer (120.0 mM NaCl, 4.3 mM KCl, 1.1 mM KH2PO4, 2.4 mM CaCl2, 1.3 mM MgCl2, 13.14 mM glucose, 0.25 mM hydroxyethyl starch 200000/0.5, 25.0 mM NaHCO3 adjusted to a constant pH range of […] L-arginine; Serag-Wissner GmbH & Co. KG, Naila, Germany) at a temperature of 37° C. Lung weight, right and left ventricle pressure, as well as ventilatory pressure were monitored and recorded during the whole experimental procedure. After 5-10 minutes, when the lung was properly flushed and all the parameters were stable, 5-amino-2,3-dihydro-1,4-phthalazinedione sodium salt was applied by adding 150 μl of a stock solution to 15 ml of the circulating perfusion buffer. The substance was applied 10 minutes prior to the first cigarette smoke application. Cigarette smoke was applied via trachea while lung is perfused with the buffer containing 5-amino-2,3-dihydro-1,4-phthalazinedione sodium salt. Cigarette smoke was prepared freshly before each application, by burning one cigarette (research cigarettes 3R4F, University of Kentucky, USA) in one minute using normoxic gas at the flow of 11/min and collected in a 11 glass bottle containing 5 g silica gel for removing the moist from the cigarette smoke. 50 ml of the cigarette smoke were taken via a syringe and applied to the lung via trachea (FIG. 1A) in deep breaths (periodic inflation for 3-4 s) over a period of 5 min. The application was done manually while carefully monitoring the inspiratory pressure to avoid damage of the lung. The cigarette smoke application was repeated three times with a 1 hour break in-between.
Five treatment groups (n=5, respectively) were investigated:
C: cigarette smoke+0.5 mM 5-amino-2,3-dihydro-1,4-phthalazinedione sodium salt
D: cigarette smoke+1 mM 5-amino-2,3-dihydro-1,4-phthalazinedione sodium salt
E: cigarette smoke+2 mM 5-amino-2,3-dihydro-1,4-phthalazinedione sodium salt
5-amino-2,3-dihydro-1,4-phthalazinedione sodium salt Form I was dissolved in water for injection (vehicle) at the required concentrations described above. Stock solutions were prepared in water for injection. Further 1:100 dilutions were made with modified Krebs-Henseleit buffer (see above). Stock solutions were stored at −70° C. in appropriate aliquots. The required amount of stock solution was thawed, and the corresponding working solution was prepared for immediate use.
One hour after the third cigarette smoke application lungs were removed from the system and fixed by inflating with formalin solution (via trachea) at the pressure of 12-15 cm H2O for two hours at room temperature. Afterwards the fixed lungs were kept in PBS (phosphate buffer saline, see below) at +4° C. until further dehydration and paraffin embedding.

Data set [2] is described as follows: aerosol characterisation (MMAD, FPF, FPM) by cascade impactor (Next Generation Impactor) after vibrating mesh nebulization. In kind it is physicochemical. The note with it: for FPF (fine particle fraction, <5 μm) / FPM (fine particle mass, 1 μm to 5 μm) / MMAD: vibrating mesh nebulizer; for FPF (fine particle fraction, <5 μm) / FPM (fine particle mass, 1 μm to 5 μm) / MMAD / released dosage: NGI at 4° C.; for released dosage at the mouthpiece as percentage of the nominal value: 3 min nebulization; for released dosage: at the mouthpiece, M-neb dose+ mesh nebulizer; for time of aerosol release: corresponds to 30 strokes/breaths; for residual amounts in the mouthpiece: mouthpiece SK-211. The method, then: It is expressly stated that the values and ranges disclosed herein refer to measurements of the MMAD, FPF and FPM by means of a cascade impactor (Next Generation Impactor, NGI) cooled down to 4° C.
The particle size distribution (FPM) and the mass median aerodynamic diameter (MMAD) of an aerosol generated from an aqueous solution containing 5-amino-2,3-dihydro-1,4-phthalazinedione sodium salt was analyzed.
Crystalline polymorph Form I of 5-amino-2,3-dihydro-1,4-phthalazinedione sodium salt was solved in physiological saline solution (double distilled water containing 0.9% NaCl). The final concentration solution was 20 mg/ml 5-amino-2,3-dihydro-1,4-phthalazinedione sodium salt.
The experimental procedure was carried out pursuant to Ph. Eur. 2.9.44 (Preparations for Nebulisation: Characterisation). A cascade impactor (Next Generation Impactor (NGI), Copley Scientific Ltd., Nottingham, UK) was used to determine the respective percentage for each fraction of the nebulized particles. The cascade impactor was cooled to 4° C. for the measurements
The nebulization of this aqueous solution of 5-amino-2,3-dihydro-1,4-phthalazinedione sodium salt was carried out by means of a vibrating mesh nebulizer (M-neb-dose+, NEBU-TEC, Eisenfeld, Germany). The thus generated aerosol was delivered to the cascade impactor by means of a mouthpiece (SK-211, NEBU-TEC, Eisenfeld, Germany).
The nebulization chamber (yellow stamp, 250 μl liquid discharge) was filled. The puff profile configured at the breath simulator was chosen in such a way that a correct simulation of inhalation by means of the nebulizer was ensured. The corresponding time was recorded.
The quantification of nebulized 5-amino-2,3-dihydro-1,4-phthalazinedione sodium salt per cascade was carried out after extraction from the cascade pans (stage 1-8) by means of HPLC with reference to an external standard calibration curve (range 0-200 μg/ml; correlation coefficient: 0.9999).
Single values obtained for each cascade were added. […] MMAD, FPF and FPM were calculated from the obtained values: […]
For comparison, the particle size distribution (FPF and FPM) and the mass median aerodynamic diameter (MMAD) of an aerosol generated from a physiological saline solution containing salbutamol sulfate was analyzed (not part of the invention). The procedure was the same as described in Example 2.
Salbutamol is one of the most widely used substances for acute asthma attacks. It is often administered via metered-dose inhalers. Therefore, a physiological saline solution of salbutamol sulfate was tested in order to determine the particle size distribution. The standard dosage (Albutol Sulfate) of 180 μg (90 μg/spray application, 2 spray applications per inhalation session) was dissolved in physiological saline.
The procedure was the same as described in Example 2.
The standard dosage (Atrovent) of 18 μg/spray application was dissolved in physiological saline.

The mark [3] stands for this setting: 20 mg/ml in physiological saline.
The mark [4] stands for this setting: aerosol from physiological saline solution.
Setting [5] is: standard dosage in physiological saline.

As to `Nc1cccc2c(=O)[nH][nH]c(=O)c12.[Na]` [5-amino-2,3-dihydro-1,4-phthalazinedione sodium salt], the “effect on cigarette smoke induced 3-nitrotyrosine formation (in words)” value (“effect” for short) in data set [1] (0.5 mM in perfusion buffer) is reported as “moderate effect”. The “effect” value in data set [1] (1 mM in perfusion buffer) is recorded as “almost completely abolished”. For the same compound, the “effect” value in data set [1] (2 mM in perfusion buffer) is recorded as “almost completely abolished”. Besides, the “cigarette smoke-induced 3-nitrotyrosine formation in the lung parenchyma, pre-treatment (in words)” value in data set [1] (ILU model, pre-treatment) is “prevents”. The “3-nitrotyrosine stained surface area, mean ± SEM” value in data set [1] (cigarette smoke + 0.5 mM in perfusion buffer) came to 2.24 ± 0.28 % area. In addition, the “3-nitrotyrosine stained surface area, mean ± SEM” value in data set [1] (cigarette smoke + 1 mM in perfusion buffer) turned out to be 0.72 ± 0.26 % area. In data set [1] (cigarette smoke + 2 mM in perfusion buffer), the “3-nitrotyrosine stained surface area, mean ± SEM” value is given as 0.37 ± 0.13 % area. Also, the “ROS/RNS levels in cigarette smoke-stimulated mouse lung (in words)” value in data set [1] (ex vivo mouse lung, 0.5-2 mM) is “dose-dependent reduction of ROS/RNS levels down to control levels”. In addition, in data set [2] (setting [3]), the “FPF (fine particle fraction, <5 μm)” value is 3.5 mg; the “FPM (fine particle mass, 1 μm to 5 μm)” value came out at 3300 µg; the released dosage is 4700 µg. In addition, in data set [2], the “released dosage at the mouthpiece as percentage of the nominal value” amounted to 95%, the “time of aerosol release” value is on record as 3 min and the “residual amounts in the mouthpiece” value is reported as “No residual amounts”. For the same compound, in data set [2] (setting [4]), the “FPF (fine particle fraction, <5 μm)” value turned out to be 74.3% and the MMAD is given as 3.1 μm. For the same compound, in data set [2] (aerosol from physiological saline solution, sodium salt), the “FPM (fine particle mass, 1 μm to 5 μm)” value worked out at 69.0%. For the same compound, in data set [2] (versus ipratropium bromide), the FPF in comparison result is “slightly higher”, the FPM in comparison entry is listed as “slightly smaller” and the MMAD in comparison entry is on record as “clearly smaller”. Besides, in data set [2] (versus salbutamol sulfate), the FPF in comparison result is given as “slightly higher”, the FPM in comparison result is “in a similar range” and the MMAD in comparison entry is reported as “clearly smaller”.

Take `CC(C)[N+]1(C)[C@@H]2CC[C@H]1CC(OC(=O)C(CO)c1ccccc1)C2.[Br-]` (stereo partly drawn) [ipratropium bromide, reference compound]: in data set [2], the “released dosage at the mouthpiece as percentage of the nominal value” turned out to be 86%, the “time of aerosol release” value is 3 min and the “residual amounts in the mouthpiece” value is listed as “No residual amounts”. In data set [2] (setting [4]), the “FPM (fine particle mass, 1 μm to 5 μm)” value is given as 69.4% and the MMAD is reported as 3.59 μm. Also, in data set [2] (setting [5]), the released dosage is 15 µg and the “FPM (fine particle mass, 1 μm to 5 μm)” value came out at 10 µg.

On to salbutamol sulfate [reference compound], for which, in data set [2], the “released dosage at the mouthpiece as percentage of the nominal value” worked out at 92%, the “time of aerosol release” value turned out to be 3 min and the “residual amounts in the mouthpiece” value was “No residual amounts”. Besides, in data set [2] (setting [4]), the “FPF (fine particle fraction, <5 μm)” value is listed as 73.3%; the “FPM (fine particle mass, 1 μm to 5 μm)” value came out at 69.1%; the MMAD amounted to 3.57 μm. In data set [2] (setting [5]), the released dosage amounted to 166 µg; the “FPF (fine particle fraction, <5 μm)” value was 0.122 mg; the “FPM (fine particle mass, 1 μm to 5 μm)” value amounted to 115 µg.

(Values after US20230061223A1, “USE OF 5-AMINO-2,3-DIHYDRO-1,4-PHTHALAZINEDIONE IN THE INHALATORY TREATMENT OF INFLAMMATORY PULMONARY DISEASES” (MetrioPharm AG, priority 2020, published 2023).)
